From patent US7863289B2, “Compounds and methods for kinase modulation, and indications therefor” (Plexxikon, Inc., priority 2006, dated 2011)

Tests used:
Format in all cases: biochemical
Src = Src (Homo sapiens, UniProt P12931); test: Kinase activity assay, Src; conditions: under the test conditions employed; read-out: activity toward kinase Src, IC50
Excerpt: (§1) Assays for the activity of kinases, including, but not limited to, B-Raf, B-Raf V600E, B-Raf […] and c-Raf-1 are known in the art, for example as described in U.S. patent application Ser. No. 11/473,347 (see Iso, PCT publication WO2007002433), the disclosure of which is hereby incorporated by reference in its entirety.

B-Raf = B-Raf (Homo sapiens, UniProt P15056); test: Kinase activity assay, B-Raf; conditions: under the test conditions employed; read-out: activity toward kinase B-Raf, IC50
Excerpt: as §1

B-Raf V600E = B-Raf V600E (Homo sapiens, UniProt P15056, V600E); test: Kinase activity assay, B-Raf V600E; conditions: under the test conditions employed; read-out: activity toward kinase B-Raf V600E, IC50
Excerpt: as §1

Fms = Fms (Homo sapiens, UniProt P07333); test: Kinase activity assay, Fms; conditions: under the test conditions employed; read-out: activity toward kinase Fms, IC50
Excerpt: as §1

c-Raf-1 = c-Raf-1 (Homo sapiens, UniProt P04049); test: Kinase activity assay, c-Raf-1; conditions: under the test conditions employed; read-out: activity toward kinase c-Raf-1, IC50
Excerpt: as §1

Kit = Kit (Homo sapiens, UniProt P10721); test: Kinase activity assay, Kit; conditions: under the test conditions employed; read-out: activity toward kinase Kit, IC50
Excerpt: as §1

Kdr = Kdr (Homo sapiens, UniProt P35968); test: Kinase activity assay, Kdr; conditions: under the test conditions employed; read-out: activity toward kinase Kdr, IC50
Excerpt: as §1

Measured: IC50

B-Raf V600E, sequence (P15056 whole entry V600E): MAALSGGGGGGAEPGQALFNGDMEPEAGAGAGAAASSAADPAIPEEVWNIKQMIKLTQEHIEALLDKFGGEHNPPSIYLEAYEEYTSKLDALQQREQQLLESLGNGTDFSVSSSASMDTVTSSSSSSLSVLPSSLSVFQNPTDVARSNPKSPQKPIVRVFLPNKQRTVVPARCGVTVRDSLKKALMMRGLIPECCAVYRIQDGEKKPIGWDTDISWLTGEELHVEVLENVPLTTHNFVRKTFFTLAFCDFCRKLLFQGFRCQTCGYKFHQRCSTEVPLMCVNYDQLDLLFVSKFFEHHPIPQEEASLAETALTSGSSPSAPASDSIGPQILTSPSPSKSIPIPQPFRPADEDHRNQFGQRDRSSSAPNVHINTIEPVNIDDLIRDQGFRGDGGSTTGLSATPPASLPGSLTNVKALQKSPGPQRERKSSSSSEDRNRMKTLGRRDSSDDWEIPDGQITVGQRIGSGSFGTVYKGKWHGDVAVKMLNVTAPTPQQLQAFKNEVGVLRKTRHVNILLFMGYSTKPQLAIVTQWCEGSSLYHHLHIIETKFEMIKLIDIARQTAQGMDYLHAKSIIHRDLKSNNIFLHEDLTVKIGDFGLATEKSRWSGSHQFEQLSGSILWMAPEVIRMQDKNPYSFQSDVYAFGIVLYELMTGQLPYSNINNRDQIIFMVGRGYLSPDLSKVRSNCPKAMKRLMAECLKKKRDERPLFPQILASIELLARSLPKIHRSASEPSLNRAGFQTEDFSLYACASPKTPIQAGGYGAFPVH
Src, sequence (P12931 whole entry): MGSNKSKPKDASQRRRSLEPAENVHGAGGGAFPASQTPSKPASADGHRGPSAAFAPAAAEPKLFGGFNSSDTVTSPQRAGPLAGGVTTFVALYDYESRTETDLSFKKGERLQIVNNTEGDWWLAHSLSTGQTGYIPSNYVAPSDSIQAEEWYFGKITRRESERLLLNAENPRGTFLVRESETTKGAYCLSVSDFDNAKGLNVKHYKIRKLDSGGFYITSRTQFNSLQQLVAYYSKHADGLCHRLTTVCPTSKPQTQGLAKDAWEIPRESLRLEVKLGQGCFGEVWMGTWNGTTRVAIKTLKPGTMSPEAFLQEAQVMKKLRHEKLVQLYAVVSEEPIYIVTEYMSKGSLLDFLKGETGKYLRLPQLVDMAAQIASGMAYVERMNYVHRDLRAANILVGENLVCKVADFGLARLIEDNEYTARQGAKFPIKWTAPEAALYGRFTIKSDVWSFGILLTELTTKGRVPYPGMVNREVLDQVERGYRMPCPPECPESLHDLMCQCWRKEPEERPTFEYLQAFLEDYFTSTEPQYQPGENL
B-Raf, sequence (P15056 whole entry): as the sequence (P15056 whole entry V600E) above, with E600V counted along it
Kit, sequence (P10721 26-976): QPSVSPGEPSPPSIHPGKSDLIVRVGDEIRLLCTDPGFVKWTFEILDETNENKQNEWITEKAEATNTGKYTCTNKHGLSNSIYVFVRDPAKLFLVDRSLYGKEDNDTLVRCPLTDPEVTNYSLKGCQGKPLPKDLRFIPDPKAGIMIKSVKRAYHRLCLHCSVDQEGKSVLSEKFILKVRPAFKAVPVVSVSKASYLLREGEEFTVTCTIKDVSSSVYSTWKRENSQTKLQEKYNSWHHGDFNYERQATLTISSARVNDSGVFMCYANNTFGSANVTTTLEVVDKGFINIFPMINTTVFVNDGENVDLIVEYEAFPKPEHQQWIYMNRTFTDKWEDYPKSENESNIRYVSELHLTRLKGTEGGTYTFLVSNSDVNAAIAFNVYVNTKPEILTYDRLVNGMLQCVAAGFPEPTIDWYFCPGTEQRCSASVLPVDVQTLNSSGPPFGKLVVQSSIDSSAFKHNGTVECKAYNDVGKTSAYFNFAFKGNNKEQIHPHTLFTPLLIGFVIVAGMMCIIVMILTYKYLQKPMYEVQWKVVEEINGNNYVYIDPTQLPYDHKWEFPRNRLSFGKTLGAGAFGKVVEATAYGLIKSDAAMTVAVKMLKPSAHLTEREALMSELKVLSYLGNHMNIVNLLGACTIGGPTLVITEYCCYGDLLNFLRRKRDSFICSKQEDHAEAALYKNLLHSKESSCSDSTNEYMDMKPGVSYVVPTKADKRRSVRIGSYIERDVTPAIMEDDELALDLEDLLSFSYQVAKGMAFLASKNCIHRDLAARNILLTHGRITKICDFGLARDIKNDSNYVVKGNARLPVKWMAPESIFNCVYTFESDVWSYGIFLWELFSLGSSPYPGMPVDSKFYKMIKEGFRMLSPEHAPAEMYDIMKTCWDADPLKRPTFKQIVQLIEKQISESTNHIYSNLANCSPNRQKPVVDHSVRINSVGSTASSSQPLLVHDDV
c-Raf-1, sequence (P04049 whole entry): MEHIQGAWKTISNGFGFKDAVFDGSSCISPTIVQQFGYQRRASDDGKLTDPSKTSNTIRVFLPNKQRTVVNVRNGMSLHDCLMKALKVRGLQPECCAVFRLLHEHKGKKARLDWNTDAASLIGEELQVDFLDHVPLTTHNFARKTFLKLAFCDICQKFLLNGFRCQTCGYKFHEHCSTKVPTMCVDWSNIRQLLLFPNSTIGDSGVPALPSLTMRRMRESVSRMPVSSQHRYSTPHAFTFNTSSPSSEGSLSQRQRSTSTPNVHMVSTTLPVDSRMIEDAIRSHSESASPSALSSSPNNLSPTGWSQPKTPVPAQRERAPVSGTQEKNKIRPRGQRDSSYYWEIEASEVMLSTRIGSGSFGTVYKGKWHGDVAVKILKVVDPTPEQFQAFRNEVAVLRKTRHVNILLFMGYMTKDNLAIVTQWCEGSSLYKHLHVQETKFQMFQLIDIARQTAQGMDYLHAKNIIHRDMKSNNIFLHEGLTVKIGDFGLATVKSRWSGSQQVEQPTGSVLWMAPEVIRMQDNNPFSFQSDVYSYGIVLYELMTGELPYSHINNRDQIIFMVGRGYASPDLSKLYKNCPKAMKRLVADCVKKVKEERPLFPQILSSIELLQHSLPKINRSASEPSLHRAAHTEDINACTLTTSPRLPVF
Kdr, sequence (P35968 20-1356): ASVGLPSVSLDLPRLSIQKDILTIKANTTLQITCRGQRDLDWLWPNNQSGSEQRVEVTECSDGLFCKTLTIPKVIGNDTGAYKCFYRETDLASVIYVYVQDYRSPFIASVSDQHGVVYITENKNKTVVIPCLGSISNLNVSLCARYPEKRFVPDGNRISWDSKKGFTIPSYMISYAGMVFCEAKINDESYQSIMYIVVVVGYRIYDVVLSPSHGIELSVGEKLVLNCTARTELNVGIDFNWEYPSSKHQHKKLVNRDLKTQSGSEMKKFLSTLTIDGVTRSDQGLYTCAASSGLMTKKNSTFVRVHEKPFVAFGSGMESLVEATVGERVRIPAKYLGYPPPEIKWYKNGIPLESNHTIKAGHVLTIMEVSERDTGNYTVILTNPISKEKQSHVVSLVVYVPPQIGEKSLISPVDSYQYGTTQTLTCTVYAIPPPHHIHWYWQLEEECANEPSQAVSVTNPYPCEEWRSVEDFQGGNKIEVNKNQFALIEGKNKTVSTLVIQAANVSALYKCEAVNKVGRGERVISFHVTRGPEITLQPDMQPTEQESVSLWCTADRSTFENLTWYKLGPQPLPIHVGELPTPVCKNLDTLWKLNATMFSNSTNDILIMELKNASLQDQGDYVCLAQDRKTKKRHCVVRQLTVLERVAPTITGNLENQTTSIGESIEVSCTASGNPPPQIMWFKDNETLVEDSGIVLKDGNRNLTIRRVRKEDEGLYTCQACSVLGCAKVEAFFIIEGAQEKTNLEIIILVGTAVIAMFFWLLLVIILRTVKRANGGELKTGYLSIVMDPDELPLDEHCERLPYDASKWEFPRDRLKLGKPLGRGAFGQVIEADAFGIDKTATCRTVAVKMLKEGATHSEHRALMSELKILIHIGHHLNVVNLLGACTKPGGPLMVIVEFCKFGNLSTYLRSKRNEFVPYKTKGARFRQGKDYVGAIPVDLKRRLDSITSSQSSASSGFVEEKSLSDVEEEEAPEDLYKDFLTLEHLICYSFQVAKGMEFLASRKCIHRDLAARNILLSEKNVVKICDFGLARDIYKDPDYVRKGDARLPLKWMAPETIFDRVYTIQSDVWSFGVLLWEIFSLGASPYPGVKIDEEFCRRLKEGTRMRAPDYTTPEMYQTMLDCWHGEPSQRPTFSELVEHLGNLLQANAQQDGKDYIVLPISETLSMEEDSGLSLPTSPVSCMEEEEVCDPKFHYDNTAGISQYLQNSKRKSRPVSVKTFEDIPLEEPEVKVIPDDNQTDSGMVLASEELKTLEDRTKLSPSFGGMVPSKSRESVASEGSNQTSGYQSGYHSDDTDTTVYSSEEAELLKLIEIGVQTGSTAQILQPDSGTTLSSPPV

O=C(c1c(F)ccc(NS(=O)(=O)c2ccc3ncsc3c2)c1F)c1c[nH]c2ncc(Cl)cc12 [Compound P-0009, Benzothiazole-6-sulfonic acid [3-(5-chloro-1H-pyrrolo[2,3-b]pyridine-3-carbonyl)-2,4-difluoro-phenyl]-amide]
not listed: Kdr
≤ 10 µM: all other assays above

O=C(O)CCc1cnc2[nH]cc(C(=O)c3c(F)ccc(NS(=O)(=O)c4ccc(C(F)(F)F)cc4)c3F)c2c1 [Compound P-0034, 3-{3-[2,6-difluoro-3-(4-trifluoromethyl-benzenesulfonylamino)-benzoyl]-1H-pyrrolo[2,3-b]pyridin-5-yl}-propionic acid]
≤ 10 µM: Kdr | B-Raf | B-Raf V600E

CCNC(=O)CCc1cnc2[nH]cc(C(=O)c3c(F)ccc(NS(=O)(=O)c4ccc(C(F)(F)F)cc4)c3F)c2c1 [Compound P-0035, 3-{3-[2,6-Difluoro-3-(4-trifluoromethyl-benzenesulfonylamino)-benzoyl]-1H-pyrrolo[2,3-b]pyridin-5-yl}-N-ethyl-propionamide]
≤ 10 µM: B-Raf | B-Raf V600E | Fms | Kit

Cc1cc(S(=O)(=O)Nc2ccc(F)c(C(=O)c3c[nH]c4ncc(Cl)cc34)c2F)c(C(F)(F)F)o1 [Compound P-0002, 5-Methyl-2-trifluoromethyl-furan-3-sulfonic acid [3-(5-chloro-1H-pyrrolo[2,3-b]pyridine-3-carbonyl)-2,4-difluoro-phenyl]-amide]
≤ 10 µM: all assays above

Cn1cc(S(=O)(=O)Nc2ccc(F)c(C(=O)c3c[nH]c4ncc(Cl)cc34)c2F)c(C(F)(F)F)n1 [Compound P-0010, 1-Methyl-3-trifluoromethyl-1H-pyrazole-4-sulfonic acid [3-(5-chloro-1H-pyrrolo[2,3-b]pyridine-3-carbonyl)-2,4-difluoro-phenyl]-amide]
≤ 10 µM: Src | Kdr | Fms | Kit

CC(C)Oc1ccc(S(=O)(=O)Nc2ccc(F)c(C(=O)c3c[nH]c4ncc(Cl)cc34)c2F)cc1 [Compound P-0011, N-[3-(5-Chloro-1H-pyrrolo[2,3-b]pyridine-3-carbonyl)-2,4-difluoro-phenyl]-4-isopropoxy-benzenesulfonamide]
not listed: B-Raf V600E
≤ 10 µM: all other assays above

O=C(c1c(F)ccc(NS(=O)(=O)c2csc3ccccc23)c1F)c1c[nH]c2ncc(Cl)cc12 [Compound P-0001, Benzo[b]thiophene-3-sulfonic acid [3-(5-chloro-1H-pyrrolo[2,3-b]pyridine-3-carbonyl)-2,4-difluoro-phenyl]-amide]
not listed: Src
≤ 10 µM: all other assays above

Cc1cnc2[nH]cc(C(=O)c3c(F)ccc(NS(=O)(=O)c4ccc(C(F)(F)F)cc4)c3F)c2c1 [Compound P-0030, N-[2,4-Difluoro-3-(5-methyl-1H-pyrrolo[2,3-b]pyridine-3-carbonyl)-phenyl]-4-trifluoromethyl-benzenesulfonamide]
≤ 10 µM: B-Raf | B-Raf V600E | c-Raf-1

CCCc1ccc(S(=O)(=O)Nc2ccc(F)c(C(=O)c3c[nH]c4ncc(Cl)cc34)c2F)cc1 [Compound P-0015, N-[3-(5-Chloro-1H-pyrrolo[2,3-b]pyridine-3-carbonyl)-2,4-difluoro-phenyl]-4-propyl-benzenesulfonamide]
not listed: Kdr
≤ 10 µM: all other assays above

Cc1ccc2sc(S(=O)(=O)Nc3ccc(F)c(C(=O)c4c[nH]c5ncc(Cl)cc45)c3F)cc2c1 [Compound P-0017, 5-Methyl-benzo[b]thiophene-2-sulfonic acid [3-(5-chloro-1H-pyrrolo[2,3-b]pyridine-3-carbonyl)-2,4-difluoro-phenyl]-amide]
not listed: Fms | Kdr
≤ 10 µM: all other assays above

COc1cnc2[nH]cc(C(=O)c3c(F)ccc(NS(=O)(=O)c4ccccn4)c3F)c2c1 [Compound P-0036, Pyridine-2-sulfonic acid [2,4-difluoro-3-(5-methoxy-1H-pyrrolo[2,3-b]pyridine-3-carbonyl)-phenyl]-amide]
≤ 10 µM: Src | B-Raf

CCCCOc1ccc(S(=O)(=O)Nc2ccc(F)c(C(=O)c3c[nH]c4ncc(Cl)cc34)c2F)cc1 [Compound P-0007, 4-Butoxy-N-[3-(5-chloro-1H-pyrrolo[2,3-b]pyridine-3-carbonyl)-2,4-difluoro-phenyl]-benzenesulfonamide]
≤ 10 µM: B-Raf | B-Raf V600E | c-Raf-1 | Kit

CC(C)(C)c1ccc(S(=O)(=O)Nc2ccc(F)c(C(=O)c3c[nH]c4ncc(Cl)cc34)c2F)cc1 [Compound P-0014, 4-tert-Butyl-N-[3-(5-chloro-1H-pyrrolo[2,3-b]pyridine-3-carbonyl)-2,4-difluoro-phenyl]-benzenesulfonamide]
not listed: Src
≤ 10 µM: all other assays above

Cc1ccc(S(=O)(=O)Nc2ccc(F)c(C(=O)c3c[nH]c4ncc(Cl)cc34)c2F)s1 [Compound P-0028, 5-Methyl-thiophene-2-sulfonic acid [3-(5-chloro-1H-pyrrolo[2,3-b]pyridine-3-carbonyl)-2,4-difluoro-phenyl]-amide]
not listed: c-Raf-1
≤ 10 µM: all other assays above

O=C(O)c1cccc(S(=O)(=O)Nc2ccc(F)c(C(=O)c3c[nH]c4ncc(Cl)cc34)c2F)c1 [Compound P-0004, 3-[3-(5-Chloro-1H-pyrrolo[2,3-b]pyridine-3-carbonyl)-2,4-difluoro-phenylsulfamoyl]-benzoic acid]
≤ 10 µM: Src | Kdr

COCCOc1cnc2[nH]cc(C(=O)c3c(F)ccc(NS(=O)(=O)c4ccc(C(C)C)cc4)c3F)c2c1 [Compound P-0018, N-{2,4-Difluoro-3-[5-(2-methoxy-ethoxy)-1H-pyrrolo[2,3-b]pyridine-3-carbonyl]-phenyl}-4-isopropyl-benzenesulfonamide]
not listed: B-Raf V600E | Fms
≤ 10 µM: all other assays above

Cn1ccc(S(=O)(=O)Nc2ccc(F)c(C(=O)c3c[nH]c4ncc(Cl)cc34)c2F)n1 [Compound P-0029, 1-Methyl-1H-pyrazole-3-sulfonic acid [3-(5-chloro-1H-pyrrolo[2,3-b]pyridine-3-carbonyl)-2,4-difluoro-phenyl]-amide]
≤ 10 µM: Src | Kdr | B-Raf V600E | Kit

O=C(c1c(F)ccc(NS(=O)(=O)c2ccc(-n3cccn3)cc2)c1F)c1c[nH]c2ncc(Cl)cc12 [Compound P-0008, N-[3-(5-Chloro-1H-pyrrolo[2,3-b]pyridine-3-carbonyl)-2,4-difluoro-phenyl]-4-pyrazol-1-yl-benzenesulfonamide]
≤ 10 µM: Src | Kdr | c-Raf-1 | Kit

COC(=O)CCc1cnc2[nH]cc(C(=O)c3c(F)ccc(NS(=O)(=O)c4ccc(C(F)(F)F)cc4)c3F)c2c1 [Compound P-0033, 3-{3-[2,6-difluoro-3-(4-trifluoromethyl-benzenesulfonylamino)-benzoyl]-1H-pyrrolo[2,3-b]pyridin-5-yl}-propionic acid methyl ester]
≤ 10 µM: B-Raf | B-Raf V600E

CCCc1ccc(S(=O)(=O)Nc2ccc(F)c(C(=O)c3c[nH]c4ncc(-c5ncc(C)n5C)cc34)c2F)cc1 [Compound P-0027, N-{3-[5-(1,5-Dimethyl-1H-imidazol-2-yl)-1H-pyrrolo[2,3-b]pyridine-3-carbonyl]-2,4-difluoro-phenyl}-4-propyl-benzenesulfonamide]
≤ 10 µM: Kdr | B-Raf | Fms | Kit

COC(=O)/C=C/c1cnc2[nH]cc(C(=O)c3c(F)ccc(NS(=O)(=O)c4ccc(C(F)(F)F)cc4)c3F)c2c1 [Compound P-0032, (E)-3-{3-[2,6-Difluoro-3-(4-trifluoromethyl-benzenesulfonylamino)-benzoyl]-1H-pyrrolo[2,3-b]pyridin-5-yl}-acrylic acid methyl ester]
≤ 10 µM: Kdr | B-Raf | B-Raf V600E | Kit
